The text below walks through data of patent US7276531B2, “G-lactam derivatives as prostaglandin agonists” (Applied Research Systems ARS Holding N.V., priority 2003, dated 2007).

Experiment [1] has as its system methacholine-induced bronchoconstriction. Nature of the experiment: In vivo inhibition of guinea pig broncho-constriction (methacholine-induced). The following applies: Cavia porcellus, IT (intra-tracheal) route, read-out: calculated effective dose (ED50), bronchoconstriction. From the text: The activity of compounds of the invention in dilation of bronchiolar muscles, may be tested in different models. Guinea pig pulmonary-cholinergic in vivo model is generally used to test the materials for the treatments of asthma in human (Fleisch et al., 1985) Compounds of the invention can be tested in this methacholine-induced bronchomuscle constriction model as described below.
Groups of 3 Duncan Hartley derived male or female guinea pigs weighing 250±50 g are anesthetized with pentobarbital sodium (50 mg/kg i.p., plus an additional 15 mg/kg i.p. if required) and succinylcholine chloride (2 mg/animal i.p.) is subsequently administered to prevent spontaneous respiration. Body temperature is maintained at 37° to 38° C.
The trachea is cannulated and the guinea pig is ventilated with a Harvard rodent respirator in a closed system. Tracheal pressure is recorded through a side-arm of the cannula connected to a P23ID Statham transducer. […] Mean arterial pressure (BP) is monitored from a cannulated carotid artery, and heart rate (HR) is obtained from chest electrodes arranged for lead II. […]
Compounds of the invention are also tested via intra-tracheal (IT) route of administration. […] Tracheal pressure (ITP), blood pressure and heart rate are measured immediately as indicated in the material and methods sections. […]

Experiment [2] relates to mature mouse ovulation induction model. Nature of the experiment: In vivo ovulation assay (mature mouse ovulation induction model). The procedure:
Ovulation induction activity of compounds of the invention was tested in a mature mouse ovulation induction model.
Mature 10-week-old CD-mice were used. Reagents were prepared as follows: PMSG (pregnant mare serum gonadotropin) (Calbiochem, cat #367222) and hCG (Serono) are diluted in PBS. PGE2 (Cayman, Ann Arbor Mich.) was dissolved in ethanol and diluted with 0.154 M […] Buffer (pH 8.0) to final concentration of ethanol of less than 3 percent. A compound of the invention (based on solubility) was pre-dissolved in ethanol, DMSO or other reagents. The compound of the invention was then diluted with saline or other diluents such as PBS or NP3S (5% N-methyl-pyrrolidinone/30% PEG400/25% PEG200/20% Propylene Glycol in saline). PMSG stimulates ovarian follicular development. After PMSG stimulation, the mature follicules can be stimulated to rupture and release oocytes by an ovulation trigger, such as hCG or a compound of the invention.
The following test protocol is employed for the test animals (typically 5 animals per test group). • Day 1: Inject 5 IU PMSG in 200 μl PBS (i.p. 15:00 PM) • Day 2: No administration • Day 3: Injection of ovulation trigger hCG (i.p.) or hCG replacement (PGE2 or compound of the invention, s.c., i.v. or oral route), 15:00 PM • Day 4: Eighteen hours after injections of the ovulation triggers, animals were sacrificed by CO2 asphyxiation and abdominal cavities were opened using fine scissors and forceps. Uterus, oviducts and ovaries were collected and placed in pre-labeled dishes containing phosphate buffered saline (PBS). The collected tissues were transferred to the laboratory and intact oviduct carefully dissected out from uterus and ovary under the dissection microscope. The dissected oviducts were placed on the glass microscopic slide and covered with another slide. Two slides were taped on two edges. The numbers of ovulated ova in the oviducts were counted using upright microscope with 4× objective and recorded. […]

The subject of experiment [3] is Dextran Sodium Sulfate-induced colitis. Briefly: In vivo inhibition of Dextran Sodium Sulfate-induced colitis. The following applies: 0.1 mg/kg p.o. daily at days 3, 4, 5 and 6, DSS 4% mice. From the text:
The anti-inflammatory activity of compounds of the invention in colitis can be assayed as follows.
Within 6-10 days after ingesting Dextran Sodium Sulfate (DSS) mice show sign of diarrhea, rectal bleeding and weight loss and colonic mucosal lesions include multiple erosion, ulceration, and marked inflammatory cell infiltration.
Ulcerative colitis (UC) was induced in female mice (Balb/c, 20-22 g, Elevage Janvier) by Dextran Sodium Sulfate (DSS 4%) administered in drinking water. The mice had free access to DSS during 5 days.
The compounds of the invention were solubilized in […] and administered by gavage at days 3, 4, 5 and 6 after the induction of the UC.
The “treated group” wherein the animals have free access to DDS and are treated each day with compounds of the invention.
The “Dextran 4%” group wherein the animals have free access to DDS 4% and 0.5% CMC/O0.25% tween (vehicle) and are not treated.
• The body weight was determined daily. • The severity of the UC was assessed by a clinical score estimating the constituency of the stool (0=firm, 1=loose, 2=diarrhea) and the presence of blood (0=no blood, 1=occult blood, 2=gross rectal bleeding). • Seven days after the induction of the disease, the animals were sacrificed. The length and the weight of the colon were determined and the ratio Length/Weight/100 g body weight was calculated.
The percentages of inhibition of weight loss, of clinical scores and of increase in the ratio colon length/weight, are calculated as follows: % inhibition=(1−(“value for treated group”−“value for control group”/”value for Dextran 4% group”−“value for control group))*100.
The percentages of inhibition are calculated for each days 5, 6 and 7 for each parameter.

In the case of `CCCC/C(C)=C/C=C\[C@H]1CCC(=O)N1CCc1ccc(C(=O)O)cc1` [Example 3, 4-(2-{(2R)-2-[(1Z,3E)-4-methylocta-1,3-dienyl]-5-oxopyrrolidin-1-yl}ethyl)benzoic acid], the ED50 – broadly, the dose that gives a 50% effect, or the effect in half of the subjects – in experiment [1] is 0.2 mg/kg. The ED50 in experiment [2] (Mus musculus, po, read-out: calculated ED50 (dose of drug which produces 50% of its effect), ovulation, p.o. administration route, mice) is 1 mg/kg. For the same molecule, the “number of ova released (average)” value in experiment [2] (oral administration, 20 mg/kg, mature mice) is reported as 20. In addition, in experiment [3], the “improved clinical score, increase compared to non-treated animals” value came out at 40%; the “increased colon weight/length, increase compared to non-treated animals” value is on record as 36%; the “inhibition of loss of body-weight compared to non-treated animals” value worked out at 39%.
